According to PubChem BioAssay (NCI):
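Cells were grown in 96-well plates and exposed to each compound for 48 hours at five concentrations; endpoints were interpolated linearly between bracketing concentrations, or set to the highest concentration if not reached. GI50: concentration for 50% inhibition of growth. Definition used: TGI = concentration required for complete inhibition of growth.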

Tests used:
Assay in all cases: inhibition of tumour cell growth, NCI panel, 48 h
[1] = system: A498 renal
[2] = system: DU-145 prostate
[3] = system: HCT-15 colon
[4] = system: HL-60(TB) leukemia
[5] = system: NCI/ADR-RES ovarian
[6] = system: RPMI-8226 leukemia
[7] = system: SF-295 CNS
[8] = system: SF-539 CNS
[9] = system: SNB-75 CNS
[10] = system: T-47D breast

| Structure (SMILES) | GI50 [1] [µM] | TGI [1] [µM] | GI50 [2] [µM] | TGI [2] [µM] | GI50 [3] [µM] | TGI [3] [µM] | GI50 [4] [µM] | TGI [4] [µM] | GI50 [5] [µM] | TGI [5] [µM] | GI50 [6] [µM] | TGI [6] [µM] | GI50 [7] [µM] | TGI [7] [µM] | GI50 [8] [µM] | TGI [8] [µM] | GI50 [9] [µM] | TGI [9] [µM] | GI50 [10] [µM] | TGI [10] [µM] |
| --- | --- | --- | --- | --- | --- | --- | --- | --- | --- | --- | --- | --- | --- | --- | --- | --- | --- | --- | --- | --- |
| N#Cc1c(N/N=C/c2c(Cl)cccc2Cl)nc(N)nc1N1CCCC1 | 0.502 | 3.18 | 5.23 | > 100 | 0.645 | 20 | 3.4 | 7.04 | 1.5 | 6.98 | 2.56 | 8.21 | 1.02 | > 100 | 1.77 | 5.58 | 2.01 | > 100 | > 100 | > 100 |
| Nc1ccc(N)c2c1C(=O)c1cccc([N+](=O)[O-])c1C2=O | 0.125 | 1.03 | 0.662 | 6.9 | 2.16 | > 100 | 3.65 | > 41.1 | 4.52 | > 100 | 2.82 | > 100 | 0.776 | > 100 | 1.92 | > 22.4 | 2.13 | 24.5 | 6.99 | > 100 |
| O=C(c1ccccc1)c1ccc(N2C(=O)C3C4c5ccccc5C(/C=C/C(=O)c5ccccn5)(c5ccccc54)C3C2=O)cc1 (stereo not given) | 2.19 | 5.8 | 2.78 | 8.1 | 1.69 | 4.4 | 1.9 | 28.1 | 2.68 | 12.8 | 2.49 | 53.3 | 2.03 | 5.07 | 2.07 | 4.91 | 0.94 | > 100 | 2.75 | > 100 |
| C/C(=N\NC(=O)c1ccncc1)c1ccccc1O | 29 | > 100 | 4.85 | > 100 | 0.828 | > 100 | 2.96 | 11.6 | 2.23 | > 100 | 4.68 | > 100 | 1.38 | > 100 | 2.78 | > 100 | > 100 | > 100 | 2.24 | > 100 |
| Cc1ccc(S(=O)(=O)NCc2cccc([N+](=O)[O-])c2)cc1 |  | > 100 |  | > 100 |  | > 100 |  | 90.3 |  | > 100 |  | > 100 |  | > 100 |  | > 100 |  | > 100 |  | > 100 |
| CCNc1nc(-c2ccc(Cl)c(OC)c2)c(-c2ccnc(NCCNS(=O)(=O)c3ccc(Cl)cc3)n2)s1 | 1.5 | 6.52 | 3.94 | > 100 | 3.36 | > 100 | 2.87 | 7.16 | 3.51 | > 100 | 2.93 | 8.39 | 1.89 | 3.83 | 2.51 | 6.63 | 2.35 | 29.8 | 2.48 | 8.02 |
| Cc1cc2c(SCc3ccccc3Cl)nc(N)nc2nc1C |  | > 100 |  | > 100 |  | > 100 |  | > 100 |  | > 100 |  | > 100 |  | > 100 |  | > 100 |  | > 100 |  | > 100 |
